In one data set the target is recombinant human GALK1 (Homo sapiens, UniProt P51570). Briefly: hGALK1 biochemical activity assay (Kinase-Glo Plus, ATP depletion). In short, it runs like this: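 Turnover is measured as ATP depletion by Kinase-Glo Plus luminescence after a 1 h room-temperature reaction. Compounds span 11 concentrations, 57.4 μM–0.97 nM, in final 20 mM HEPES pH 8.0 with 5 mM MgCl2. The substrate solution held 35 μM ATP; the added solution held 5 nM human or mouse GALK1 and 100 μM galactose.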
Chain of recombinant human GALK1 (P51570 whole entry): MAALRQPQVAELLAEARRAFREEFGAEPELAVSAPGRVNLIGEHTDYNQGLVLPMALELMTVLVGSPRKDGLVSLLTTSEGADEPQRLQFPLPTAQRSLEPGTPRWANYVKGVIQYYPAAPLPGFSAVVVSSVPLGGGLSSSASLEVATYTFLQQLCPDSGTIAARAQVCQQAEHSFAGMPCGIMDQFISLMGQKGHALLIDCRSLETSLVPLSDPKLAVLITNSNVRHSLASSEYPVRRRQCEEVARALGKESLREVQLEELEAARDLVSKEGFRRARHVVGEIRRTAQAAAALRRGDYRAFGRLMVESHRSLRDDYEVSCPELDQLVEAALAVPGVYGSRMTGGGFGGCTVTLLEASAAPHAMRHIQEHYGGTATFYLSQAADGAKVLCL
A general note: Kinase-Glo measures the ATP left after a reaction by luminescence.

The target in another data set is recombinant mouse GALK1 (Mus musculus, UniProt Q9R0N0). Description: mGALK1 biochemical activity assay (Kinase-Glo Plus, ATP depletion). The essentials:
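Recombinant GALK1 (5 nM) with 100 μM galactose; GALK1 turnover read as ATP depletion by Kinase-Glo Plus luminescence. Reaction ran 1 h at room temperature before detection reagent was added.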

The nature of data set [1]: aqueous kinetic solubility.
Data set [2] is described as follows: rat microsomal stability (RLM).
The mark [3] stands for this setting: Tables 2-15, 35 μM ATP, 100 μM galactose, 1 h, bracketed figure after some values (e.g. −1.2) is undefined and not reported, read-out: hGALK IC50.
Where [4] appears, read: recombinant human GALK1, Kinase-Glo Plus ATP depletion, read-out: hGALK.
[5] abbreviates: Tables 2-15, 35 μM ATP, 100 μM galactose, 1 h, bracketed figure after some values is undefined and not reported, read-out: mGALK IC50.
The mark [6] stands for this setting: recombinant mouse GALK1, Kinase-Glo Plus ATP depletion, read-out: mGALK.
The mark [7] stands for this setting: recombinant human GALK1, Kinase-Glo Plus ATP depletion, bracketed figure in the cell, e.g. (−1.2), is not defined in the text shown, read-out: hGALK.
Where [8] appears, read: microsomal stability half-life, minutes.
The mark [9] stands for this setting: recombinant mouse GALK1, Kinase-Glo Plus ATP depletion, bracketed figure in the cell, e.g. (−1.2), is not defined in the text shown, read-out: mGALK.

Consider 14 compounds from US20230158025A1 (UNIVERSITY OF UTAH RESEARCH FOUNDATION, priority 2020, published 2023).

The structures appear in SMILES notation. Where two headings read alike, the source gives them in different places.

One may read the Papp as the rate of passage across a membrane or cell layer, normalised by area and donor concentration. A high value points to fast passage.

Chain of recombinant mouse GALK1 (Q9R0N0 whole entry): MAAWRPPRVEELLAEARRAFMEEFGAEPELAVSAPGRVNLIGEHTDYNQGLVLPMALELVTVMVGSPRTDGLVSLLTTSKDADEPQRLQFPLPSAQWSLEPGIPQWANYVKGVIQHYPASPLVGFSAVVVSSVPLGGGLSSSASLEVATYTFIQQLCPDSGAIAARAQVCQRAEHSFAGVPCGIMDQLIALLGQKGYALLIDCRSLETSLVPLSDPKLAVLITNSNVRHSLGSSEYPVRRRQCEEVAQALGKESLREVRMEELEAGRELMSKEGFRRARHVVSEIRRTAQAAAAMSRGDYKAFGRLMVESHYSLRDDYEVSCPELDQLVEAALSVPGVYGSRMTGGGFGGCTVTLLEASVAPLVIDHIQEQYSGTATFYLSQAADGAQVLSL

With `CC1=C(C(=O)NCc2c(C)nn(C)c2C)C(c2ccc(C)cc2Cl)N=C(Nc2nc3cccc(N)c3o2)N1` (stereo not drawn) [Compound 113, 2-((7-aminobenzo[d]oxazol-2-yl)amino)-4-(2-chloro-4-methylphenyl)-6-methyl-N-((1,3,5-trimethyl-1H-pyrazol-4-yl)methyl)-1,4-dihydropyrimidine-5-carboxamide], the IC50 worked out at 1.22 µM on recombinant human GALK1 (setting [3]), 1.22 µM at recombinant human GALK1 (setting [4]), 6.85 µM at recombinant mouse GALK1 (setting [5]) and 6.85 µM at recombinant mouse GALK1 (setting [6]). In addition, the “Perm. (1 × 10^−6 cm/sec)” value in “PAMPA permeability” is listed as 127.92 1 × 10^−6 cm/sec. In addition, the “Sol.” value in data set [1] stood at 12.0 µg/mL. Further, the “Metab. Stabil. (m)” value in data set [2] (microsomal half-life) is listed as 2.369 m.
On to `CC1=C(C(=O)Nc2nncs2)C2(CCOC2)N=C(Nc2nc3ccccc3o2)N1` (stereo not drawn) [Compound 260, 7-(benzo[d]oxazol-2-ylamino)-9-methyl-N-(1,3,4-thiadiazol-2-yl)-2-oxa-6,8-diazaspiro[4.5]deca-6,9-diene-10-carboxamide], for which the IC50 at recombinant human GALK1 (setting [7]) stood at 12.2 µM. Further, the “mGALK (μM)” value at recombinant mouse GALK1 (recombinant mouse GALK1, Kinase-Glo Plus ATP depletion, bracketed figure in the cell, e.g. (−1.2), is not defined in the text shown) was “in- active”. The “Perm. (1 × 10^−6 cm/sec)” value in “PAMPA permeability” (PAMPA) is 102.7 1 × 10^−6 cm/sec. Also, the “Sol.” value in data set [1] (aqueous kinetic solubility) came out at 37.9 µg/mL. Moreover, the “Metab. Stabil. (m)” value in data set [2] (setting [8]) is given as >30 m.
As to `CC1=C(C(=O)NCc2cnn(Cc3ccccc3)c2)C(c2ccc(C)cc2Cl)N=C(Nc2nc3ccc(F)cc3o2)N1` (stereo not drawn) [Compound 110, N-((1-benzyl-1H-pyrazol-4-yl)methyl)-4-(2-chloro-4-methylphenyl)-2-((6-fluorobenzo[d]oxazol-2-yl)amino)-6-methyl-1,4-dihydropyrimidine-5-carboxamide], the IC50 came to 1.72 µM at recombinant human GALK1 (setting [3]), 1.72 µM on recombinant human GALK1 (setting [4]), 5.44 µM at recombinant mouse GALK1 (setting [5]) and 5.44 µM at recombinant mouse GALK1 (setting [6]). The “Perm. (1 × 10^−6 cm/sec)” value in “PAMPA permeability” is reported as 159.0 1 × 10^−6 cm/sec. The “Sol.” value in data set [1] was <1 µg/mL. For the same compound, the “Metab. Stabil. (m)” value in data set [2] (microsomal half-life) amounted to 2.74 m.
For `CC1=C(C(=O)Nc2nncs2)C(c2nn(C)cc2Cl)N=C(Nc2nc3ccccc3o2)N1` (stereo not drawn) [Compound 253, 2-(benzo[d]oxazol-2-ylamino)-4-(4-chloro-1-methyl-1H-pyrazol-3-yl)-6-methyl-N-(1,3,4-thiadiazol-2-yl)-1,4-dihydropyrimidine-5-carboxamide], the IC50 at recombinant human GALK1 (setting [7]) was found to be 7.69 µM; on recombinant mouse GALK1 (setting [9]) it was 17.2 µM. Besides, the “Perm. (1 × 10^−6 cm/sec)” value in the data set “PAMPA permeability” (PAMPA) was 746.9 1 × 10^−6 cm/sec. Besides, the “Sol.” value in data set [1] (aqueous kinetic solubility) came out at 12.8 µg/mL. The “Metab. Stabil. (m)” value in data set [2] (setting [8]) was >30 m.
Take `CC1=C(C(=O)Nc2cc(N(C)C)ccn2)C(c2ccc(C)cc2Cl)N=C(Nc2nc3cccc(N)c3o2)N1` (stereo not drawn) [Compound 89, 2-((7-aminobenzo[d]oxazol-2-yl)amino)-4-(2-chloro-4-methylphenyl)-N-(4-(dimethylamino)pyridin-2-yl)-6-methyl-1,4-dihydropyrimidine-5-carboxamide]: the IC50 on recombinant human GALK1 (setting [3]) turned out to be 3.43 µM; on recombinant human GALK1 (setting [4]), 3.34 µM; on recombinant mouse GALK1 (setting [5]), 15.3 µM; at recombinant mouse GALK1 (setting [6]), 15.3 µM. In addition, in the data set “PAMPA permeability”, the “Perm. (1 × 10^−6 cm/sec)” value is 179.3 1 × 10^−6 cm/sec. Further, in data set [1], the “Sol.” value was 4.6 µg/mL. The “Metab. Stabil. (m)” value in data set [2] (microsomal half-life) was determined as 11.7017 m.
For `CC1=C(C(=O)NCc2cccnc2)C(c2ccccc2Cl)N=C(Nc2nc3ccccc3o2)N1` (stereo not drawn) [Compound 221, 2-(benzo[d]oxazol-2-ylamino)-4-(2-chlorophenyl)-6-methyl-N-(pyridin-3-ylmethyl)-1,4-dihydropyrimidine-5-carboxamide], the IC50 on recombinant human GALK1 (setting [3]) is 6.85 µM; at recombinant human GALK1 (setting [4]), 6.85 µM; on recombinant mouse GALK1 (setting [6]) it was 19.3 µM. Further, the “Perm. (1 × 10^−6 cm/sec)” value in “PAMPA permeability” (PAMPA) is on record as 1248.8 1 × 10^−6 cm/sec. For the same compound, the “Sol.” value in data set [1] (aqueous kinetic solubility) is <1 µg/mL. For the same compound, in data set [2] (microsomal stability half-life), the “Metab. Stabil. (m)” value is 1.582 m.
For `CC(C)C1=C(C(=O)Nc2nncs2)C(c2ccccc2Cl)N=C(Nc2nc3ccccc3o2)N1` (stereo not drawn) [Compound 250, 2-(benzo[d]oxazol-2-ylamino)-4-(2-chlorophenyl)-6-isopropyl-N-(1,3,4-thiadiazol-2-yl)-1,4-dihydropyrimidine-5-carboxamide], the IC50 at recombinant human GALK1 (setting [7]) was 7.69 µM; on recombinant mouse GALK1 (setting [9]), 15.3 µM. In “PAMPA permeability” (PAMPA), the “Perm. (1 × 10^−6 cm/sec)” value is recorded as 24.6 1 × 10^−6 cm/sec. Besides, in data set [1] (aqueous kinetic solubility), the “Sol.” value was <1 µg/mL. For the same compound, the “Metab. Stabil. (m)” value in data set [2] (setting [8]) is reported as >30 m.
Consider `CC1=C(C(=O)NCc2ccccc2CO)C(c2ccccc2Cl)N=C(Nc2nc3ccccc3o2)N1` (stereo not drawn) [Compound 229, 2-(benzo[d]oxazol-2-ylamino)-4-(2-chlorophenyl)-N-(2-(hydroxymethyl)benzyl)-6-methyl-1,4-dihydropyrimidine-5-carboxamide], for which the IC50 came to 6.11 µM at recombinant human GALK1 (setting [3]), 15.3 µM on recombinant mouse GALK1 (setting [5]) and 15.3 µM at recombinant mouse GALK1 (setting [6]). In the data set “PAMPA permeability” (PAMPA), the “Perm. (1 × 10^−6 cm/sec)” value was 1362.3 1 × 10^−6 cm/sec. The “Sol.” value in data set [1] (aqueous kinetic solubility) was <1 µg/mL. Moreover, the “Metab. Stabil. (m)” value in data set [2] (microsomal stability half-life) was 5.0859 m.
As to `COC(=O)c1cnc(NC(=O)C2=C(C)NC(Nc3nc4ccccc4o3)=NC2c2ccccc2Cl)s1` (stereo not drawn) [Compound 185, methyl 2-(2-(benzo[d]oxazol-2-ylamino)-4-(2-chlorophenyl)-6-methyl-1,4-dihydropyrimidine-5-carboxamido)thiazole-5-carboxylate], the IC50 at recombinant human GALK1 (setting [3]) turned out to be 4.32 µM; on recombinant human GALK1 (setting [4]), 4.32 µM; on recombinant mouse GALK1 (setting [5]) it was 10.9 µM; on recombinant mouse GALK1 (setting [6]) it was 10.9 µM. In addition, in “PAMPA permeability” (PAMPA, Perm. (1 × 10^−6 cm/sec)), the Papp is < 76 nm/s. In addition, in data set [1] (aqueous kinetic solubility), the “Sol.” value is <1 µg/mL. In data set [2] (microsomal stability half-life), the “Metab. Stabil. (m)” value came out at 15.91 m.
Consider `CC1=C(C(=O)Nc2nncs2)C(c2nn(C)cc2Br)N=C(Nc2nc3ccccc3o2)N1` (stereo not drawn) [Compound 265, 2-(benzo[d]oxazol-2-ylamino)-4-(4-bromo-1-methyl-1H-pyrazol-3-yl)-6-methyl-N-(1,3,4-thiadiazol-2-yl)-1,4-dihydropyrimidine-5-carboxamide], for which the IC50 amounted to 3.43 µM on recombinant human GALK1 (setting [7]) and 19.3 µM on recombinant mouse GALK1 (setting [9]). The “Perm. (1 × 10^−6 cm/sec)” value in “PAMPA permeability” (PAMPA) is recorded as 1044.0 1 × 10^−6 cm/sec. Also, the “Sol.” value in data set [1] (aqueous kinetic solubility) amounted to 6.4 µg/mL. Also, in data set [2] (setting [8]), the “Metab. Stabil. (m)” value is >30 m.
As to `CNC(=O)c1ccnc(NC(=O)C2=C(C)NC(Nc3nc4ccccc4o3)=NC2c2ccccc2Cl)c1` (stereo not drawn) [Compound 213, 2-(benzo[d]oxazol-2-ylamino)-4-(2-chlorophenyl)-6-methyl-N-(4-(methylcarbamoyl)pyridin-2-yl)-1,4-dihydropyrimidine-5-carboxamide], the IC50 at recombinant human GALK1 (setting [3]) worked out at 3.06 µM; on recombinant human GALK1 (setting [4]), 3.06 µM; on recombinant mouse GALK1 (setting [5]) it was 10.9 µM; at recombinant mouse GALK1 (setting [6]), 10.9 µM. In addition, the “Perm. (1 × 10^−6 cm/sec)” value in “PAMPA permeability” (PAMPA) is recorded as 421.9 1 × 10^−6 cm/sec. The “Sol.” value in data set [1] (aqueous kinetic solubility) is <1 µg/mL. Moreover, the “Metab. Stabil. (m)” value in data set [2] (microsomal stability half-life) is listed as >30 m.
With `CC1=C(C(=O)NCc2cnn(C)c2)[C@@H](c2ccc(C)cc2Cl)N=C(Nc2nc3cccc(N)c3o2)N1` [Compound 116, (S)-2-((7-aminobenzo[d]oxazol-2-yl)amino)-4-(2-chloro-4-methylphenyl)-6-methyl-N-((1-methyl-1H-pyrazol-4-yl)methyl)-1,4-dihydropyrimidine-5-carboxamide], the IC50 on recombinant human GALK1 (setting [4]) amounted to 12.2 µM; at recombinant mouse GALK1 (setting [6]), 30.6 µM. Also, the “Perm. (1 × 10^−6 cm/sec)” value in the data set “PAMPA permeability” is reported as 326.9 1 × 10^−6 cm/sec. Besides, the “Sol.” value in data set [1] came to 21.9 µg/mL. Moreover, the “Metab. Stabil. (m)” value in data set [2] (microsomal half-life) came out at 7.868 m.
Turning to `COc1ccc2oc(NC3=NC(c4ccccc4Cl)C(C(=O)Nc4nnc(-c5cccnc5)s4)=C(C)N3)nc2c1` (stereo not drawn) [Compound 95, 4-(2-chlorophenyl)-2-((5-methoxybenzo[d]oxazol-2-yl)amino)-6-methyl-N-(5-(pyridin-3-yl)-1,3,4-thiadiazol-2-yl)-1,4-dihydropyrimidine-5-carboxamide], the “hGALK (μM)” value on recombinant human GALK1 (recombinant human GALK1, Kinase-Glo Plus ATP depletion) is given as “in- active”. On recombinant mouse GALK1 (recombinant mouse GALK1, Kinase-Glo Plus ATP depletion), the “mGALK (μM)” value is “in- active”. The “Perm. (1 × 10^−6 cm/sec)” value in “PAMPA permeability” was <19.1 1 × 10^−6 cm/sec. In addition, the “Sol.” value in data set [1] was <1 µg/mL. In data set [2] (microsomal half-life), the “Metab. Stabil. (m)” value was >30 m.
Regarding `CC1=C(C(=O)NCc2cnn(Cc3ccccc3)c2)C(c2ccc(C)cc2Cl)N=C(Nc2nc3cccc(N)c3o2)N1` (stereo not drawn) [Compound 114, 2-((7-aminobenzo[d]oxazol-2-yl)amino)-N-((1-benzyl-1H-pyrazol-4-yl)methyl)-4-(2-chloro-4-methylphenyl)-6-methyl-1,4-dihydropyrimidine-5-carboxamide], the IC50 is 0.39 µM at recombinant human GALK1 (setting [3]), 0.39 µM at recombinant human GALK1 (setting [4]), 5.44 µM at recombinant mouse GALK1 (setting [5]) and 5.44 µM at recombinant mouse GALK1 (setting [6]). Besides, the “Perm. (1 × 10^−6 cm/sec)” value in the data set “PAMPA permeability” was 103.8 1 × 10^−6 cm/sec. Also, the “Sol.” value in data set [1] is <1 µg/mL. In addition, the “Metab. Stabil. (m)” value in data set [2] (microsomal half-life) was determined as 6.732 m.
